In US11819021B2, “Peptides and methods and uses thereof for modulating anaphase promoting complex (APC) activity” (University of Saskatchewan, priority 2017, dated 2023):
“Also recorded” adds a separate entry of the source. No end group written: not given here.

What was measured:
apc10Δ cells = assay: Spot dilution growth of apc10Δ cells expressing peptides; type: cell-based, yeast; conditions: 30 and 34° C.
Text: A. Y2H cells expressing the APC subunit bait and the galactose inducible Apc10 peptide prey grown on glucose or galactose. Cells co-expressing the Apc5 or Apc10-bait and Apc10 aptamer-prey vectors were spotted onto the appropriate media, in the presence or absence of galactose (the aptamers are Gal inducible), to confirm 2-hybrid interactions. Growth on trp-his-media ensures both plasmids are maintained. A 2-hybrid interaction will drive expression of the ADE2 gene, allowing growth on ade-media. B. Aptamers that bind Apc10 can suppress APC mutant phenotypes. Spot dilutions of apc10Δ cells expressing an empty vector control or the one of 6 Apc10 aptamers tested. Log phase cells were 10-fold serially diluted and spotted onto plates containing either 2% glucose or 2% galactose. The plates were then incubated at 30° C. (permissive temperature) and 34° C. (restrictive stress). C. Peptides identified as binding to the yeast Apc10 APC subunit using the yeast 2-hybrid screen increase growth of cells on stress conditions. A series of APC binding peptides were transformed into wild type yeast cells, spot diluted, and grown at 30° C. on media supplemented with the normal carbon source (2% glucose). Alternatively, cells were grown on media supplemented with 2% galactose to induce a carbon stress. D. Peptides were expressed in apc5^ts temperature sensitive cells and grown on glucose or galactose media at 30° C.
The cells were exposed to 5 sec of UV from a UV box prior to incubation.
The six peptide expressing vectors were transformed into apc10Δ cells and assessed for temperature sensitive growth. Two of the peptides, C43-4 and C2-4B, suppressed the apc10Δ growth phenotype at 30 and 34° C. (FIG. 1B-D). […]
Over 100 peptides that bound either Apc5 or Apc10 were recovered from millions screened. […] Vectors expressing these 6 peptides were transformed into APC mutant cells and assessed for ts growth.
Methods • 1. […] The growth of the cells was determined by measuring the optical density (OD) of the cells at 600 nm (OD600) • 3. […]

WT cells = assay: Chronological lifespan of WT yeast cells; type: cell-based
Protocol: (§1) A. apc5^CA (temperature sensitive allele) cells were transformed with C43-4, C2-4B or an empty vector. Cells grown overnight in 2% Glu were struck onto 2% Glucose plates and used for the yeast replicative lifespan (RLS) assay. B. Wild type (WT) cells transformed with C43-4, C2-4B or an empty vector were grown to stationary phase in 2% Glu media, then after 2 days spot diluted onto 2% Glu or 2% Gal to induce expression of the aptamers.
(§2) The six peptide expressing vectors were transformed into apc10Δ cells and assessed for temperature sensitive growth. Two of the peptides, C43-4 and C2-4B, suppressed the apc10Δ growth phenotype at 30 and 34° C. (FIG. 1B-D). […] However, C43-4 and C2-4B increased replicative and chronological lifespan in both apc5^CA and WT cells, respectively (FIG. 2A). […] H2O2 induces oxidative stress whereas galactose induces a carbon stress.

wheat embryos = assay: Expression of C43-4 in wheat embryos: localization and germination; type: in vivo; conditions: versus empty vector controls
Protocol: (§3) A. Wheat embryos were transformed with an expression vector harboring the C43-4-HA peptide fused to the red fluoresce protein (RFP), or an RFP empty vector, using a ballistic shotgun approach. Embryos were imaged using fluorescence to view RFP. B. Protein lysates were prepared from the transformed embryos and subjected to western analyses using antibodies against the APC substrate Securin. A nonspecific protein band is used to control for protein load.
C43-4 was subcloned into a plant vector and expressed in wheat embryos.
The wheat embryos (scutella) were transformed using a Biolistics-mediated transformation of wheat embryos. Wheat embryos were inoculated with Agrobacterium harbouring an RFP expression vector. Following inoculation with Agrobacterium, embryos were placed on a medium that allows for growth of both the embryos and the Agrobacterium. Timentin was used for killing remaining A. tumefaciens cells after co-cultivation.
Germination rate was determined as a function of time to observe growth from the embryo and on average, the transformed embryos containing the peptide germinated before empty vector controls. […] Accordingly, the Htz1-like peptide (C43-4) activates the APC in plants.

apc5^CA cells = assay: Yeast replicative lifespan (RLS) assay; type: cell-based
Protocol: as §1
(§4) A. apc5^CA cells expressing small peptides were assayed for replicative life span (RLS). B. Cells expressing HTZ1 were grown under stress conditions. HTZ1 expression, even at low levels, suppresses apc5^CA and apc10Δ defects. The cells shown were transformed with either an empty vector or GAL inducible HTZ1. On 2% glucose, the construct is weakly expressed, and this is enough to increase growth of APC mutants at 30° C.

[1] = system: wild type (WT) yeast cells; assay: Spot dilution growth and stress resistance of wild type yeast cells expressing peptides; type: cell-based
Protocol: as §1
The cells were exposed to 5 sec of UV from a UV box prior to incubation. The plus signs define growth compared to the empty vector control.
as §2
These cells were spot diluted on Trp-plates and grown at the temperatures shown and/or exposed to ultraviolet (UV) irradiation (FIG. 11). At low level expression on glucose, some of the mutations caused stress dependent phenotypes.
Methods • 1. Cells were cultured overnight in Trp-2% glucose media • 2. The growth of the cells was determined by measuring the optical density (OD) of the cells at 600 nm (OD600) • 3. Cells were diluted to OD600 of 1 with fresh culture media • 4. 100 ul of each culture was pipetted into a well of a 96 well plate • 5. 10 ul of the each starting culture was pipetted into 90 ul of water in 4 additional wells to make a 10-fold serial spot dilution • 6. 5 ul from each serial dilution was spotted onto plates containing standard growth media with either 2% glucose or 2% galactose using a multi-pipettor • 7. The plates were exposed to UV • 8. The plates were then placed at room temperature, 30, 34 or 37° C. for 3-7 days • 9. The plates were scanned and saved as tiff files

Apc10 = molecular target: T1, Apc10 (Saccharomyces cerevisiae, UniProt P53068); assay: Yeast 2-hybrid (Y2H) binding of peptide prey to Apc10 bait; conditions: galactose-inducible Trx-scaffold peptide prey
T1 construct: expressed in transfected cells; host or cells: yeast Y2H cells
T1 sequence (P53068 1-250): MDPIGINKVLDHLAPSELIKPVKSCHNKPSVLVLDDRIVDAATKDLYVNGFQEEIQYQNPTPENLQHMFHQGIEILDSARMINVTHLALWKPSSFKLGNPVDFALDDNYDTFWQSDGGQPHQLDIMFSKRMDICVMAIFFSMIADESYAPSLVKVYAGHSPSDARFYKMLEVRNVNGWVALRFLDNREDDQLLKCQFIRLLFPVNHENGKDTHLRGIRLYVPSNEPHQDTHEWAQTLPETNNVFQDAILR
Protocol: (§5) The reverse genetic screen utilized a yeast 2-hybrid (Y2H) protocol that selected for peptides that bound to the APC subunits Apc5 or Apc10 (see FIG. 5 for APC structure), to assess whether peptide-binding might modify APC function. Peptides that bound APC subunits were then assayed for those that suppressed APC mutant defects.
A library of random small peptides were cloned into a Thioredoxin (Trx) scaffold (see FIG. 6 for Trx-aptamer structure) and expressed from a galactose-inducible Y2H prey vector in cells expressing the Apc10 bait vector (the modified Apc10 is still part of the complete APC complex). Six peptides that reproducibly interacted with the Apc10 bait construct in Y2H assays were identified (FIG. 1A) and were examined further.
Random small peptides were cloned into the TrxA scaffold (library provided by R. Geyer, U of S) and expressed from a galactose-inducible Y2H prey vector in cells harboring either APC5 or APC10 Y2H bait vectors (APC5/APC10 bait constructs complement APC mutant defects).
(§6) Over 100 peptides that bound either Apc5 or Apc10 were recovered from millions screened. Six peptides that reproducibly interacted with the Apc10 bait construct in Y2H assays were examined further. Vectors expressing these 6 peptides were transformed into APC mutant cells and assessed for ts growth.

[2] = system: APC mutant (apc5 temperature sensitive mutant and/or apc10Δ mutant); assay: Viability/growth of APC mutant yeast cells; type: cell-based
Protocol: as §4
Examples of yeast cells with defective anaphase promoting complex (APC) function include apc5 and apc10 mutants. An example of an apc5 mutant is the apc5 temperature sensitive mutant described herein. An example of an apc10 mutant is the apc10 deletion mutant described herein.
as §5, §6

Securin = assay: Western of APC substrate in transformed wheat embryos; type: cell-based
Protocol: as §3
APC targets APC substrates for degradation such that the relative levels provides an indication of APC activity in a cell. For example, if the substrates are reduced, without being bound by any theory, it is believed to mean that the APC is working better.

[3] = system: OSW canine lymphoma cells; assay: Trypan Blue viability of drug resistant OSW lymphoma cells; type: cell-based; conditions: OSW dog lymphoma cells selected for drug resistance; 1 μmol M2I-1 (18 hrs) then 1 μmol DOX (48 hrs)
Protocol: (§7) A. Parental MCF7 human breast cancer cells, or cells selected for resistance to Tamoxifen, were treated with 1 or 5 μM M2I-1. Tamoxifen resistant cells were also treated with both Doxorubicin and M2I-1. Trypan Blue. (3 rpts). ND, no data. B. Protein lysates were prepared from the cells used in A. The APC target HURP was measured using antibodies against HURP. C. Trypan Blue was used to measure viability of OSW canine lymphoma cells pretreated with 1 μmol M2I-1 (18 hrs), followed by 1 μmol DOX (48 hrs). Parental cells were only treated with monotherapy (3 rpts). ND, no data. D. OSW matched cells treated with the APC activator M2I-1 were prepared for APC substrate westerns E. Quantification of western protein abundance (3 rpts).
(§8) Drug resistant human breast cancer cells in culture were treated with the M2I-1 activator.

[4] = system: MCF7 human breast cancer cells selected for resistance to Tamoxifen; assay: Trypan Blue viability of drug resistant MCF7 breast cancer cells; type: cell-based
Protocol: as §7, §8

HURP = assay: Western of APC substrates in drug resistant MCF7 cells; type: cell-based; conditions: drug resistant human breast cancer cells
Protocol: as §7, §8

[5] = system: human breast tumor (4-28 PDX); assay: Tumor growth in mouse model of patient derived triple negative breast cancer (4-28 PDX); type: in vivo; conditions: single 25 mg/kg i.p. injection, Doxorubicin resistant TNBC PDX mouse
Protocol: (§9) A. In vivo study of M2I-1 impact on human breast tumor (4-28 PDX). Single 25 mg/kg i.p. injection (treatment) versus mock (DMSO) day 1, tumor size measured daily. B. Western analysis of apoptosis (PARP cleavage—24 kDa band) and APC substrate abundance (Cyclin B) in liver and tumor of treated and control after sacrifice on Day 6.
(§10) A mouse model for growing patient derived breast tumor cells obtained from a patient with triple negative breast cancer was developed. This patient had developed resistance to Doxorubicin. Tumors growing in these mice grow rapidly. A mouse was injected with 25 mg/kg M2I-1.

Cyclin B = assay: Western of APC substrate abundance in PDX tumor; type: in vivo, mouse; conditions: 25 mg/kg, after sacrifice on Day 6
Protocol: as §9, §10

## NGSSHNDLRVRRLTLISRLC (also: expressed in thioredoxin scaffold) [C43-4, Peptide aptamer expressed from Thioredoxin scaffold; residues 2-14 homologous to Htz1]
apc10Δ cells
  apc10Δ growth phenotype: suppressed
WT cells
  Chronological lifespan: increased
Wheat embryos
  Germination of transformed wheat embryos: germinated faster
apc5^CA cells
  Replicative lifespan: increased
[1]; 30° C.
  Log phase growth of wild type (WT) cells: Neither C43-4 nor C2-4B influenced
[1]; WT cells on glucose, temperature and/or UV stress, versus empty vector
  Stress resistance at low level expression: increased stress resistance
[1]; overexpressed, H2O2 oxidative stress, galactose carbon stress
  Stress resistance when overexpressed in WT yeast cells: increased stress resistance
Apc10
  Binds Apc10 in a yeast 2 hybrid assay: Binds Apc10
[2]
  Viability of an APC mutant: increases the viability
Securin
  Level of tested APC substrate in the embryo: reduced level

## CC(C)CN(CC(C)C)c1ccc(C=C2C(=O)NC(=S)NC2=O)cc1[N+](=O)[O-] [M2I-1, Mad2 Inhibitor-1]
[3]
  Cell killing in combination with chemotherapy: only in the presence of M2I-1 were cells killed
[4]; 1 or 5 μM, 18 hrs, Trypan Blue
  Growth / toxicity of activator alone in drug resistant breast cancer cells: did not impair the growth; also recorded: not toxic
[4]; Tamoxifen resistant MCF7 cells
  Cell killing / toxicity in combination with chemotherapy (Doxorubicin): only in the presence of M2I-1 were cells killed; also recorded: enhances toxicity
HURP
  Levels of APC substrates: reduced
[5]
  Tumor growth: stalled
Cyclin B
  Markers of APC substrates in the tumor: positive for APC activation
